# Laboratory results from patent US9695155B2, “Herbicidal substituted pyrimidinyloxy benzene compounds” (E. I. DU PONT DE NEMOURS AND COMPANY, priority 2013, dated 2017).
# How the values were obtained:
# [1] = test system: wild mustard; test: Test D postemergence; type: in vivo, Sinapis arvensis; details: Brassica, post-emergence; for pest or weed control at 16 g/ha: 16 g ai/ha, scale 0-100, read-out: Plant response rating, Mustard, Wild; for pest or weed control at 31 g/ha: 31 g ai/ha; for pest or weed control at 31 g/ha / pest or weed control at 62 g/ha / pest or weed control at 125 g/ha: scale 0 to 100 (0 no effect, 100 complete control), read-out: Plant response rating, Mustard, Wild; for pest or weed control at 62 g/ha: 62 g ai/ha; for pest or weed control at 125 g/ha: 125 g ai/ha
# Excerpt: (§1) Seeds of plant species selected from bluegrass (annual bluegrass, Poa annua), blackgrass (Alopecurus myosuroides), canarygrass (littleseed canarygrass, Phalaris minor), chickweed (common chickweed, Stellaria media), galium (catchweed bedstraw, Galium aparine), bromegrass, downy (downy bromegrass, Bromus tectorum), field poppy (Papaver rhoeas), field violet (Viola arvensis), green foxtail (Setaria viridis), deadnettle (henbit deadnettle, Lamium amplexicaule), Italian ryegrass (Lolium multiflorum), kochia (Kochia scoparia), lambsquarters (Chenopodium album), oilseed rape (Brassica napus), pigweed (Amaranthus retroflexus), chamomile (scentless chamomile, Matricaria inodora), Russian thistle (Salsola kali), speedwell (bird's-eye speedwell, Veronica persica), spring barley (Hordeum vulgare), spring wheat (Triticum aestivum), wild buckwheat (Polygonum convolvulus), wild mustard (Sinapis arvensis), wild oat (Avena fatua), wild radish (Raphanus raphanistrum), windgrass (Apera spica-venti), winter barley (Hordeum vulgare), and winter wheat (Triticum aestivum) were planted into a silt loam soil and treated preemergence with test chemicals formulated in a non-phytotoxic solvent mixture which included a surfactant.
# (§2) At the same time, these species were planted in pots containing Redi-Earth® planting medium (Scotts Company, 14111 Scottslawn Road, Marysville, Ohio 43041) comprising spaghnum peat moss, vermiculite, wetting agent and starter nutrients and treated with postemergence applications of the test chemicals formulated in the same manner. Plants ranged in height from 2 to 18 cm (1- to 4-leaf stage). Treated plants and controls were maintained in a controlled growth environment for 7 to 21 days after which time all species were compared to controls and visually evaluated. Plant response ratings, summarized in Table D, are based on a scale of 0 to 100 where 0 is no effect and 100 is complete control. A dash (-) response means no test result.
# [2] = test system: speedwell; test: Test D postemergence; type: in vivo, Veronica persica; details: Veronica persica, post-emergence; for pest or weed control at 16 g/ha: 16 g ai/ha, scale 0-100, read-out: Plant response rating, Speedwell; for pest or weed control at 31 g/ha: 31 g ai/ha; for pest or weed control at 31 g/ha / pest or weed control at 62 g/ha / pest or weed control at 125 g/ha: scale 0 to 100 (0 no effect, 100 complete control), read-out: Plant response rating, Speedwell; for pest or weed control at 62 g/ha: 62 g ai/ha; for pest or weed control at 125 g/ha: 125 g ai/ha
# Excerpt: as §1, §2
# [3] = test system: wild buckwheat; test: Test D preemergence; type: in vivo, Polygonum convolvulus; details: Fallopia convolvulus, pre-emergence; for pest or weed control at 16 g/ha: 16 g ai/ha, scale 0 (no effect) to 100 (complete control), read-out: Plant response rating, Buckwheat, Wild; for pest or weed control at 31 g/ha: 31 g ai/ha; for pest or weed control at 31 g/ha / pest or weed control at 62 g/ha / pest or weed control at 125 g/ha: scale 0-100, read-out: Plant response rating, Buckwheat, Wild; for pest or weed control at 62 g/ha: 62 g ai/ha; for pest or weed control at 125 g/ha: 125 g ai/ha
# Excerpt: as §1, §2
# [4] = test system: galium; test: Test D postemergence; type: in vivo, Galium aparine; details: Galium, post-emergence; for pest or weed control at 16 g/ha: 16 g ai/ha, scale 0-100, read-out: Plant response rating, Galium; for pest or weed control at 31 g/ha: 31 g ai/ha; for pest or weed control at 31 g/ha / pest or weed control at 62 g/ha / pest or weed control at 125 g/ha: scale 0 to 100 (0 no effect, 100 complete control), read-out: Plant response rating, Galium; for pest or weed control at 62 g/ha: 62 g ai/ha; for pest or weed control at 125 g/ha: 125 g ai/ha
# Excerpt: as §1, §2
# [5] = test system: kochia; test: Test D preemergence; type: in vivo, Kochia scoparia; details: Bassia scoparia, pre-emergence; for pest or weed control at 16 g/ha: 16 g ai/ha, scale 0 (no effect) to 100 (complete control), read-out: Plant response rating, Kochia; for pest or weed control at 31 g/ha: 31 g ai/ha; for pest or weed control at 31 g/ha / pest or weed control at 62 g/ha / pest or weed control at 125 g/ha: scale 0-100, read-out: Plant response rating, Kochia; for pest or weed control at 62 g/ha: 62 g ai/ha; for pest or weed control at 125 g/ha: 125 g ai/ha
# Excerpt: as §1, §2
# [6] = test system: lambsquarters; test: Test D postemergence; type: in vivo, Chenopodium album; details: Chenopodium album, post-emergence; for pest or weed control at 16 g/ha: 16 g ai/ha, scale 0-100, read-out: Plant response rating, Lambsquarters; for pest or weed control at 31 g/ha: 31 g ai/ha; for pest or weed control at 31 g/ha / pest or weed control at 62 g/ha / pest or weed control at 125 g/ha: scale 0 to 100 (0 no effect, 100 complete control), read-out: Plant response rating, Lambsquarters; for pest or weed control at 62 g/ha: 62 g ai/ha; for pest or weed control at 125 g/ha: 125 g ai/ha
# Excerpt: as §1, §2
# [7] = test system: deadnettle; test: Test D postemergence; type: in vivo, Lamium amplexicaule; details: Lamium amplexicaule, post-emergence; for pest or weed control at 16 g/ha: 16 g ai/ha, scale 0-100, read-out: Plant response rating, Deadnettle; for pest or weed control at 31 g/ha: 31 g ai/ha; for pest or weed control at 31 g/ha / pest or weed control at 62 g/ha / pest or weed control at 125 g/ha: scale 0 to 100 (0 no effect, 100 complete control), read-out: Plant response rating, Deadnettle; for pest or weed control at 62 g/ha: 62 g ai/ha; for pest or weed control at 125 g/ha: 125 g ai/ha
# Excerpt: as §1, §2
# [8] = test system: chickweed; test: Test D postemergence; type: in vivo, Stellaria media; details: Stellaria media, post-emergence; for pest or weed control at 16 g/ha: 16 g ai/ha, scale 0-100, read-out: Plant response rating, Chickweed; for pest or weed control at 31 g/ha: 31 g ai/ha; for pest or weed control at 31 g/ha / pest or weed control at 62 g/ha / pest or weed control at 125 g/ha: scale 0 to 100 (0 no effect, 100 complete control), read-out: Plant response rating, Chickweed; for pest or weed control at 62 g/ha: 62 g ai/ha; for pest or weed control at 125 g/ha: 125 g ai/ha
# Excerpt: as §1, §2
# [9] = test system: deadnettle; test: Test D preemergence; type: in vivo, Lamium amplexicaule; details: Lamium amplexicaule, pre-emergence; for pest or weed control at 16 g/ha: 16 g ai/ha, scale 0 (no effect) to 100 (complete control), read-out: Plant response rating, Deadnettle; for pest or weed control at 31 g/ha: 31 g ai/ha; for pest or weed control at 31 g/ha / pest or weed control at 62 g/ha / pest or weed control at 125 g/ha: scale 0-100, read-out: Plant response rating, Deadnettle; for pest or weed control at 62 g/ha: 62 g ai/ha; for pest or weed control at 125 g/ha: 125 g ai/ha
# Excerpt: as §1, §2
# [10] = test system: blackgrass; test: Test D preemergence; type: in vivo, Alopecurus myosuroides; details: Alopecurus myosuroides, pre-emergence; for pest or weed control at 16 g/ha: 16 g ai/ha, scale 0 (no effect) to 100 (complete control), read-out: Plant response rating, Blackgrass; for pest or weed control at 31 g/ha: 31 g ai/ha; for pest or weed control at 31 g/ha / pest or weed control at 62 g/ha / pest or weed control at 125 g/ha: scale 0-100, read-out: Plant response rating, Blackgrass; for pest or weed control at 62 g/ha: 62 g ai/ha; for pest or weed control at 125 g/ha: 125 g ai/ha
# Excerpt: as §1, §2
# [11] = test system: lambsquarters; test: Test D preemergence; type: in vivo, Chenopodium album; details: Chenopodium album, pre-emergence; for pest or weed control at 16 g/ha: 16 g ai/ha, scale 0 (no effect) to 100 (complete control), read-out: Plant response rating, Lambsquarters; for pest or weed control at 31 g/ha: 31 g ai/ha; for pest or weed control at 31 g/ha / pest or weed control at 62 g/ha / pest or weed control at 125 g/ha: scale 0-100, read-out: Plant response rating, Lambsquarters; for pest or weed control at 62 g/ha: 62 g ai/ha; for pest or weed control at 125 g/ha: 125 g ai/ha
# Excerpt: as §1, §2
structure (smiles),measurement,setting,value
"FC(F)(F)COc1cnn(-c2ccccc2Oc2ncc(Cl)cn2)c1 [Compound 138, 5-chloro-2-[2-[4-(2,2,2-trifluoroethoxy)-1H-pyrazol-1-yl]phenoxy]pyrimidine]",pest or weed control at 16 g/ha,[1],65%
same,pest or weed control at 31 g/ha,[1],75%
same,pest or weed control at 62 g/ha,[1],75%
same,pest or weed control at 125 g/ha,[1],75%
same,pest or weed control at 16 g/ha,[2],70%
same,pest or weed control at 31 g/ha,[2],70%
same,pest or weed control at 62 g/ha,[2],75%
same,pest or weed control at 125 g/ha,[2],75%
same,pest or weed control at 16 g/ha,[3],60%
same,pest or weed control at 31 g/ha,[3],35%
same,pest or weed control at 62 g/ha,[3],55%
same,pest or weed control at 125 g/ha,[3],75%
same,pest or weed control at 16 g/ha,[4],70%
same,pest or weed control at 31 g/ha,[4],70%
same,pest or weed control at 62 g/ha,[4],75%
same,pest or weed control at 125 g/ha,[4],75%
same,pest or weed control at 16 g/ha,[5],20%
same,pest or weed control at 31 g/ha,[5],20%
same,pest or weed control at 62 g/ha,[5],35%
same,pest or weed control at 125 g/ha,[5],55%
same,pest or weed control at 16 g/ha,[6],55%
same,pest or weed control at 31 g/ha,[6],60%
same,pest or weed control at 62 g/ha,[6],60%
same,pest or weed control at 125 g/ha,[6],60%
same,pest or weed control at 16 g/ha,[7],5%
same,pest or weed control at 31 g/ha,[7],5%
same,pest or weed control at 62 g/ha,[7],15%
same,pest or weed control at 125 g/ha,[7],25%
same,pest or weed control at 16 g/ha,[8],20%
same,pest or weed control at 31 g/ha,[8],20%
same,pest or weed control at 62 g/ha,[8],40%
same,pest or weed control at 125 g/ha,[8],55%
same,pest or weed control at 16 g/ha,[9],5%
same,pest or weed control at 31 g/ha,[9],5%
same,pest or weed control at 62 g/ha,[9],20%
same,pest or weed control at 125 g/ha,[9],30%
same,pest or weed control at 16 g/ha,[10],0%
same,pest or weed control at 31 g/ha,[10],0%
same,pest or weed control at 62 g/ha,[10],25%
same,pest or weed control at 125 g/ha,[10],30%
same,pest or weed control at 16 g/ha,[11],45%
same,pest or weed control at 31 g/ha,[11],10%
same,pest or weed control at 62 g/ha,[11],60%
same,pest or weed control at 125 g/ha,[11],100%
"FC(F)(F)c1cn(-c2ccccc2Oc2ncc(Cl)cn2)nn1 [Compound 166, 5-chloro-2-[2-[4-(trifluoromethyl)-1H-1,2,3-triazol-1-yl]phenoxy]pyrimidine]",pest or weed control at 16 g/ha,[1],75%
same,pest or weed control at 31 g/ha,[1],80%
same,pest or weed control at 62 g/ha,[1],85%
same,pest or weed control at 125 g/ha,[1],100%
same,pest or weed control at 16 g/ha,[2],70%
same,pest or weed control at 31 g/ha,[2],85%
same,pest or weed control at 62 g/ha,[2],100%
same,pest or weed control at 125 g/ha,[2],100%
same,pest or weed control at 16 g/ha,[3],60%
same,pest or weed control at 31 g/ha,[3],95%
same,pest or weed control at 62 g/ha,[3],100%
same,pest or weed control at 125 g/ha,[3],100%
same,pest or weed control at 16 g/ha,[4],70%
same,pest or weed control at 31 g/ha,[4],75%
same,pest or weed control at 62 g/ha,[4],80%
same,pest or weed control at 125 g/ha,[4],90%
same,pest or weed control at 16 g/ha,[5],35%
same,pest or weed control at 31 g/ha,[5],65%
same,pest or weed control at 62 g/ha,[5],95%
same,pest or weed control at 125 g/ha,[5],100%
same,pest or weed control at 16 g/ha,[6],80%
same,pest or weed control at 31 g/ha,[6],90%
same,pest or weed control at 62 g/ha,[6],95%
same,pest or weed control at 125 g/ha,[6],95%
same,pest or weed control at 16 g/ha,[7],40%
same,pest or weed control at 31 g/ha,[7],60%
same,pest or weed control at 62 g/ha,[7],65%
same,pest or weed control at 125 g/ha,[7],70%
same,pest or weed control at 16 g/ha,[8],55%
same,pest or weed control at 31 g/ha,[8],65%
same,pest or weed control at 62 g/ha,[8],80%
same,pest or weed control at 125 g/ha,[8],90%
same,pest or weed control at 16 g/ha,[9],70%
same,pest or weed control at 31 g/ha,[9],75%
same,pest or weed control at 62 g/ha,[9],100%
same,pest or weed control at 125 g/ha,[9],100%
same,pest or weed control at 16 g/ha,[10],10%
same,pest or weed control at 31 g/ha,[10],55%
same,pest or weed control at 62 g/ha,[10],70%
same,pest or weed control at 125 g/ha,[10],95%
same,pest or weed control at 16 g/ha,[11],85%
same,pest or weed control at 31 g/ha,[11],95%
same,pest or weed control at 62 g/ha,[11],100%
same,pest or weed control at 125 g/ha,[11],100%
